We go through 16 compounds from article PMC3635066 (Journal of medicinal chemistry, 2012).

Bounds are passed on as bounds.

Broadly, the IC50 is the concentration needed to halve the response being measured.

Data set [1] addresses T1, recombinant CpIMPDH (Cryptosporidium parvum, UniProt Q8T6T2).
T1 sequence (Q8T6T2 1-400): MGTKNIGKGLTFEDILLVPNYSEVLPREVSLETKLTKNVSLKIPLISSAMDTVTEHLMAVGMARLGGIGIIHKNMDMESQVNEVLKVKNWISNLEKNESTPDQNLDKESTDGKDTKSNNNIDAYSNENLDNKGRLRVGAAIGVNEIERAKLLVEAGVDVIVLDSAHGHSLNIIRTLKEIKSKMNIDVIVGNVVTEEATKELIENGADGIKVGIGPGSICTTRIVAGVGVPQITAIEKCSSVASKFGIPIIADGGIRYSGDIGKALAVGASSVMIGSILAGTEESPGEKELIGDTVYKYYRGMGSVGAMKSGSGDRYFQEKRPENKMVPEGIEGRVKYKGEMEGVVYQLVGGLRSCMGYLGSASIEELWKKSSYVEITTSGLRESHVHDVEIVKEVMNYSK
Put plainly: biochemical. Type of data set: biochemical. The conditions noted are these: for increase in potency: relative to compound 1.

The nature of data set [2]: Mouse liver microsomal stability. Type of data set: in vitro ADME.

For `C=C(C)c1cccc(C(C)(C)NC(=O)Nc2ccc(C(C)(C)C)cc2)c1` [Compound 5g, 1-(4-(tert-Butyl)phenyl)-3-(2-(3-(prop-1-en-2-yl)phenyl)propan-2-yl)urea], the “CpIMPDH inhibitory activity (in words)” value in data set [1] was “lacking activity”.

For the compound `CC(=O)c1cccc(C(C)(C)NC(=O)Nc2ccc(Cl)c(C(N)=O)c2)c1` [Compound 6c, 5-(3-(2-(3-acetylphenyl)propan-2-yl)ureido)-2-chlorobenzamide], in data set [2], the “mouse liver microsomal stability (in words)” value is given as “very resistant to oxidative degradation in microsomes”.

`CC(C)c1cccc(C(C)(C)NC(=O)Nc2ccc3ccccc3c2)c1` [Compound 11, 1-(2-(3-Isopropylphenyl)propan-2-yl)-3-(naphthalen-2-yl)urea]: the “CpIMPDH inhibitory activity (in words)” value in data set [1] was “complete loss of inhibitory activity”.

For the compound `C=C(C)c1cccc(C(C)(C)NC(=O)Nc2ccccc2Cl)c1` [Compound 5e, 1-(2-Chlorophenyl)-3-(2-(3-(prop-1-en-2-yl)phenyl)propan-2-yl)urea], the “CpIMPDH inhibitory activity (in words)” value in data set [1] is “completely inactive”.

`CC(C)(NC(=O)Nc1ccc(Cl)c(C(N)=O)c1)c1cccc(-c2ccccc2)c1` [Compound 36a, 5-(3-(2-([1, 1′-biphenyl]-3-yl)propan-2-yl)ureido)-2-chlorobenzamide]: the “CpIMPDH inhibitory activity (in words)” value in data set [1] is listed as “retained potent activity”.

With `CC(C)(NC(=O)Nc1ccc2[nH]c(=O)[nH]c2c1)c1ccccc1` [Compound 38, 1-(2-Oxo-2,3-dihydro-1H-benzo[d]imidazol-5-yl)-3-(2-phenylpropan 2 yl)urea], the “CpIMPDH inhibitory activity (in words)” value in data set [1] is reported as “complete loss of inhibitory activity”.

As for `C=C(C)c1cccc(C(C)(C)NC(=O)Nc2ccc(Cl)cc2)c1` [Compound 5b, 1-(4-chlorophenyl)-3-(2-(3-(prop-1-en-2-yl)phenyl)propan-2-yl)urea], the increase in potency in data set [1] amounted to 16 fold.

`CO/N=C(\C)c1cccc(C(C)(C)NC(=O)Nc2ccc(Cl)c(C(F)(F)F)c2)c1` [Compound 8a, (E)-1-(4-Chloro-3-(trifluoromethyl)phenyl)-3-(2-(3-(1-(methoxyimino)ethyl)phenyl)propan-2-yl)urea]: the “mouse liver microsomal stability (in words)” value in data set [2] is listed as “less stable”.

Turning to `C=C(C)c1cccc(C(C)(C)NC(=O)Nc2ccc(Br)cc2)c1` [Compound 5c, 1-(4-Bromophenyl)-3-(2-(3-(prop-1-en-2-yl)phenyl)propan-2-yl)urea], the increase in potency in data set [1] turned out to be 32 fold.

For `C/C(=N\OCCN)c1cccc(C(C)(C)NC(=O)Nc2ccc(Cl)c([N+](=O)[O-])c2)c1` [Compound 9, (E)-1-(2-(3-(1-((2-aminoethoxy)imino)ethyl)phenyl)propan-2-yl)-3 (4-chloro-3-nitrophenyl)urea], the “mouse liver microsomal stability (in words)” value in data set [2] is given as “excellent mouse liver microsomal stability”.

As to `CC(=O)c1cccc(CNC(=O)Nc2ccc(Cl)cc2)c1` [Compound 23, 1-(3-Acetylbenzyl)-3-(4-chlorophenyl) urea], the “CpIMPDH inhibitory activity (in words)” value in data set [1] is recorded as “complete loss of activity”.

As to `CC(=O)c1cccc(C(C)(C)OC(=O)Nc2ccc(Cl)cc2)c1` [Compound 28, 2-(3-Acetylphenyl) propan-2-yl (4-chlorophenyl)carbamate], the reduction in activity in data set [1] (relative to 6a) is recorded as 2 fold.

Consider `C/C(=N\O)c1cccc(C(C)(C)NC(=O)Nc2ccc(Cl)c(C(N)=O)c2)c1` [Compound 7c, (E) 2 chloro 5-(3-(2-(3-(1-(hydroxyimino)ethyl)phenyl)propan-2-yl)ureido)benzamide], for which the IC50 in data set [1] is not above 1 nM.

On to `CC(C)(NC(=O)Nc1ccc(Cl)cc1)c1ccc(-c2ccccc2)cc1` [Compound 36b, 1-(2-([1,1′-Biphenyl]-4-yl)propan-2-yl)-3-(4-chlorophenyl)urea], for which, in data set [1], the “CpIMPDH inhibitory activity (in words)” value is “complete loss of inhibitory activity”.

Consider `CC(O)c1cccc(C(C)(C)NC(=O)Nc2ccc(Cl)cc2)c1` (stereo not shown) [Compound 10, 1-(4-chlorophenyl)-3-(2-(3-(1-hydroxyethyl)phenyl)propan-2-yl)urea], for which the “CpIMPDH inhibitory activity (in words)” value in data set [1] is listed as “moderate activity”.

For the compound `C=C(C)c1cccc(C(C)(C)NC(=O)Nc2cccc(Cl)c2)c1` [Compound 5d, 1-(3-Chlorophenyl)-3-(2-(3-(prop-1-en-2-yl)phenyl)propan-2-yl)urea], in data set [1] (relative to 5b), the loss of activity is reported as 3 fold.
